Experiments:
[1] = biological target: Neuronal acetylcholine receptor; alpha4/beta2 (Homo sapiens, UniProt P17787+P43681); assay: Displacement of [3H]cytisine from human alpha4beta2 nAChR expressed in CHOK1 cell membrane by microbeta scintillation counting method; format: cell membranes, CHO-K1
[2] = biological target: Neuronal acetylcholine receptor; alpha3/beta4 (Homo sapiens, UniProt P30926+P32297); assay: Displacement of [3H]epibatidine from human alpha3beta4 nAChR expressed in IMR32 cell membrane by microbeta scintillation counting method; format: cell membranes, IMR-32
[3] = Metabolic stability in human liver microsomes assessed as compound metabolism incubated for 30 mins in presence of NADPH by LC-MS/MS analysis; format: ADME, Microsome; conditions: read-out: Drug metabolism
[4] = Metabolic stability in rat liver microsomes assessed as compound metabolism incubated for 30 mins in presence of NADPH by LC-MS/MS analysis; format: ADME, Microsome; conditions: read-out: Drug metabolism
[5] = Oral bioavailability in Wistar rat at 10 ml/kg measured upto 24 hrs by LC-MS/MS analysis; format: ADME, organism-based; conditions: in vivo
[6] = Cmax in Wistar rat at 10 ml/kg, po or 2 ml/kg, iv measured upto 24 hrs by LC-MS/MS analysis; format: ADME, organism-based; conditions: in vivo
[7] = AUC in Wistar rat at 10 ml/kg, po or 2 ml/kg, iv measured upto 24 hrs by LC-MS/MS analysis; format: ADME, organism-based; conditions: in vivo
[8] = Half life in Wistar rat at 10 ml/kg, po or 2 ml/kg, iv measured upto 24 hrs by LC-MS/MS analysis; format: ADME, organism-based; conditions: in vivo
[9] = Ratio of drug level in brain to plasma in Wistar rat at 10 ml/kg, po or 2 ml/kg, iv measured upto 24 hrs by LC-MS/MS analysis; format: ADME, organism-based; conditions: brain and plasma, read-out: BPR
[10] = biological target: Cytochrome P450 2D6 (Homo sapiens, UniProt P10635); assay: Inhibition of CYP2D6 in human liver microsomes using dextromethorphan as substrate incubated for 12 min in presence of NADPH by LC-MS/MS analysis; format: ADME
[11] = biological target: Cytochrome P450 3A4 (Homo sapiens, UniProt P08684); assay: Inhibition of CYP3A4 in human liver microsomes using midazolam as substrate incubated for 2 min in presence of NADPH by LC-MS/MS analysis; format: ADME
[12] = test system: Rattus norvegicus; assay: Antidepressant activity in Wistar rat assessed as reduction in immobility at 1 mg/kg, po administrated for 3 days and measured for 5 mins by forced swim test relative to control; format: functional; parameters: scale not given: the % may be the effect or the level left
[13] = test system: Rattus norvegicus; assay: Antidepressant activity in Wistar rat assessed as reduction in immobility at 3 mg/kg, po administrated for 3 days and measured for 5 mins by forced swim test relative to control; format: functional; parameters: scale not given: the % may be the effect or the level left
[14] = test system: Rattus norvegicus; assay: Antidepressant activity in Wistar rat assessed as reduction in immobility at 10 mg/kg, po administrated for 3 days and measured for 5 mins by forced swim test relative to control; format: functional; parameters: scale not given: the % may be the effect or the level left
[15] = test system: Rattus norvegicus; assay: Antidepressant activity in Wistar rat assessed as immobility time at 45 mg/kg, ip measured for 5 mins by forced swim test (reference value: 271.9 +/- 7.2 sec); format: functional

Cytochrome P450 3A4, sequence (P08684 whole entry): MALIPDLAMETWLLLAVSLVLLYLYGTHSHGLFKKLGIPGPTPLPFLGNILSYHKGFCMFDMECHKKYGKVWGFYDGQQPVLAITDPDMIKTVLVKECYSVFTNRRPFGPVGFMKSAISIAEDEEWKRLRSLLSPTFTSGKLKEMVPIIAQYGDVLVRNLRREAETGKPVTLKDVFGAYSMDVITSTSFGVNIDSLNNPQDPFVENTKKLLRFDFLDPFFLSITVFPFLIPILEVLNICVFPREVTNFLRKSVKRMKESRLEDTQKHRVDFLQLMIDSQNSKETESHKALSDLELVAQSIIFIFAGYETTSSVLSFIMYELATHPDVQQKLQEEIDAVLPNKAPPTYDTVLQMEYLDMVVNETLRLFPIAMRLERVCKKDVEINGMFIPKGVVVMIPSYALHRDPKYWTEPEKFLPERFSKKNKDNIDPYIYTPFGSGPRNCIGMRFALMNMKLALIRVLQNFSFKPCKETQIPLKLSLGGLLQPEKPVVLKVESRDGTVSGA
Neuronal acetylcholine receptor; alpha4/beta2, sequence (P17787 whole entry): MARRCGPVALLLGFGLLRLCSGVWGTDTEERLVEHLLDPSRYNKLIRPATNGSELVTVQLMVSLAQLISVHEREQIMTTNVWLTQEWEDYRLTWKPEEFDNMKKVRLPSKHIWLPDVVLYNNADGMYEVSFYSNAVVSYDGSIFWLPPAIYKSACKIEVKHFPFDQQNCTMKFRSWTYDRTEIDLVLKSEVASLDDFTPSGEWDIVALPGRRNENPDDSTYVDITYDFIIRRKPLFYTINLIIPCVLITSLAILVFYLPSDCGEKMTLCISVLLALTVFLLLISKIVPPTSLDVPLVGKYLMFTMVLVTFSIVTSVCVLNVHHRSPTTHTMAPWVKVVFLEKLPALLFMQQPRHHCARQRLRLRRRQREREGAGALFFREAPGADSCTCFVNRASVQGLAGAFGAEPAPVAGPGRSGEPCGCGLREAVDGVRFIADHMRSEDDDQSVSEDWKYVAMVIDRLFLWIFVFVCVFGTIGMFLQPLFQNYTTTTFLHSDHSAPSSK
Neuronal acetylcholine receptor; alpha4/beta2, sequence (P43681 whole entry): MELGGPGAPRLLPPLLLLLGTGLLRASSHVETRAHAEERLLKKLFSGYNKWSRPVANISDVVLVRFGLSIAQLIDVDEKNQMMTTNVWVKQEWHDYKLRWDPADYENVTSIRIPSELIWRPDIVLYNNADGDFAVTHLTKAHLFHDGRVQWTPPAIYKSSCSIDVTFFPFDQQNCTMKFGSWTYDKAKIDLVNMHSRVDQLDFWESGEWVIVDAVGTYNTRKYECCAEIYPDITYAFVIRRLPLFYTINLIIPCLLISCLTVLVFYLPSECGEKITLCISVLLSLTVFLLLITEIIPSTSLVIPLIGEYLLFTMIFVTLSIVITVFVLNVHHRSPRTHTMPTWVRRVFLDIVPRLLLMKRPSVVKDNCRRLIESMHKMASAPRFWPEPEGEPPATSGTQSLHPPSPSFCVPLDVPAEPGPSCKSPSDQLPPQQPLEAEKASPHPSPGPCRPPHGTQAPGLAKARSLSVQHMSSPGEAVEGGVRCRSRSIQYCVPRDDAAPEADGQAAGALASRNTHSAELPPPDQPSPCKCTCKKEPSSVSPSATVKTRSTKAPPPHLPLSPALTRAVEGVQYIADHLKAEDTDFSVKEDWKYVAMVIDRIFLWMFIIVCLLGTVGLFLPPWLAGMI
Cytochrome P450 2D6, sequence (P10635 whole entry): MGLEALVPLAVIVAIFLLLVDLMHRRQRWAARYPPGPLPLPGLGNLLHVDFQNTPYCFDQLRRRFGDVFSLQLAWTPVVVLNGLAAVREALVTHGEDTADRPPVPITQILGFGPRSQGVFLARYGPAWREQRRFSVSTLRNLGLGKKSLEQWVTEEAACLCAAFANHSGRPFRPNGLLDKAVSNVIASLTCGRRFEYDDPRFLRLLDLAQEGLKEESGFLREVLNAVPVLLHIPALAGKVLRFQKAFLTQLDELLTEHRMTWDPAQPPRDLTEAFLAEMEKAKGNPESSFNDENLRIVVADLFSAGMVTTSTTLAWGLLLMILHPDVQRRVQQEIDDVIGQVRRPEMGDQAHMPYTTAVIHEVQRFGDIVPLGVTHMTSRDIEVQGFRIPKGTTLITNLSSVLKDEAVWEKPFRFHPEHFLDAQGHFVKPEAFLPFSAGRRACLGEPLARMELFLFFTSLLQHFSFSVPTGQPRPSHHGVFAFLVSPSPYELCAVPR
Neuronal acetylcholine receptor; alpha3/beta4, sequence (P30926 whole entry): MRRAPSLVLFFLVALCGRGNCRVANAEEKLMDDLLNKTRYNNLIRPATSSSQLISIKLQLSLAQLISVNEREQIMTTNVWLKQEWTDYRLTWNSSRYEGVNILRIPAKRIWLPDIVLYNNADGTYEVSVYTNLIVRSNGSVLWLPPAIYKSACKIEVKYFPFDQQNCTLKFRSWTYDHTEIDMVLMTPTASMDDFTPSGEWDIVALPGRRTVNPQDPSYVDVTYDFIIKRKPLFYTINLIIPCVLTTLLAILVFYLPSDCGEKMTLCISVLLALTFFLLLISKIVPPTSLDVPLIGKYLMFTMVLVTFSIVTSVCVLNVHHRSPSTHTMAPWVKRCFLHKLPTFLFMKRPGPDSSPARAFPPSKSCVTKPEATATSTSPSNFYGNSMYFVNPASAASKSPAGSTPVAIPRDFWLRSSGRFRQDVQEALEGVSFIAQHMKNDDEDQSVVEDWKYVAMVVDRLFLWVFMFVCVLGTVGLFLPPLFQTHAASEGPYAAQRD
Neuronal acetylcholine receptor; alpha3/beta4, sequence (P32297 whole entry): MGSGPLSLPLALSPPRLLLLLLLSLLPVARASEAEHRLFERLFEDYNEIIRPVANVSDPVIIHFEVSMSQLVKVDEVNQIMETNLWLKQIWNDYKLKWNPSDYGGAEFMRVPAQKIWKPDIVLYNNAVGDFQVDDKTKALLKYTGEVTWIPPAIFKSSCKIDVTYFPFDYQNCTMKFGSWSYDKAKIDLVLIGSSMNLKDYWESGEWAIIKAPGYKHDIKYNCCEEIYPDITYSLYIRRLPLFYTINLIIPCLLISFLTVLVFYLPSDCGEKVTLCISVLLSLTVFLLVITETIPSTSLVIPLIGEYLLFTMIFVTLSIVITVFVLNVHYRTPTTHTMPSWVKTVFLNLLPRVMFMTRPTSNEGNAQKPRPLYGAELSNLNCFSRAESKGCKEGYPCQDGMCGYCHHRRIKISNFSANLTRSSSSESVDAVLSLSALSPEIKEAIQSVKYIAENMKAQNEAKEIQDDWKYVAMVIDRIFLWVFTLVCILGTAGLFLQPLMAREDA

Question: With `Cl.Clc1ncccc1OC[C@@H]1C[C@H]2C[C@H]2N1` as the compound, how does the Ki [1] read?
Answer: 0.0175 µM

Question: And the Ki [2]?
Answer: > 10 µM

Question: What about the metabolised at 0.5 h [3] of the same compound?
Answer: 29.5%

Question: And the metabolised at 0.5 h [4]?
Answer: 14.9%

Question: What about the bioavailability [5] of the same compound?
Answer: 54%

Question: What about the Cmax [6] of the same compound?
Answer: 921 ng/mL

Question: And the AUC at 24 h [7]?
Answer: 2160 ng·h/mL

Question: And the half-life [8]?
Answer: 2.15 h

Question: And the Kp at 24 h [9]?
Answer: 3.6

Question: What about the IC50 [10] of the same compound?
Answer: > 42 µM

Question: And the IC50 [11]?
Answer: > 45 µM

Question: And the Activity [12]?
Answer: 10%

Question: And the Activity [13]?
Answer: 24.7%

Question: And the Activity [14]?
Answer: 15.8%

Question: Which Time [15] does the source give for `CN(C)CCCN1c2ccccc2CCc2ccccc21` [IMIPRAMINE] here?
Answer: 176.5 s

Source: ChEMBL document CHEMBL4602676, “Discovery and Development of 3-(6-Chloropyridine-3-yloxymethyl)-2-azabicyclo[3.1.0]hexane Hydrochloride (SUVN-911): A Novel, Potent, Selective, and Orally Active Neuronal Nicotinic Acetylcholine α4β2 Receptor Antagonist for the Treatment of Depression” (J Med Chem, 2020)
